One assay deals with PC3 (prostate). The assay can be described thus: In vitro cytotoxic activity MTT assay, PC3. In kind it is cell-based. The conditions noted are these: Homo sapiens; cells exposed for 96 hours; 50% inhibition of cell proliferation; read-out: Cytotoxicity activity IC50, PC3 (prostate). The method, then: (§1) Compounds 1-16 were screened for their in vitro cytotoxic activity utilizing a 3-(4,5-dimethyl-thiazol-2-yl)-2,5-diphenyltetrazolium bromide (MTT) assay against selected cancer human cell lines consisting of PC3 (prostate), HCT116 (colon), A375 (melanoma), H1299 (lung), MIAPaCa-2 (pancreas), HL60 (leukemia), MCF7 (breast), MDA-MB-231 (breast) (T. Mosmann, J. Immunol. Meth., 1983, 65, 55-63). The cells were cultured at 37° C. in RMPI1640 medium supplemented with 10% fetal bovine serum, 50 IU/mL penicillin, and 50 μg/mL streptomycin in a 5% CO2 incubator. All cells were sub-cultured 3 times/week by trypsinisation. Viable cells were seeded and allowed to adhere for 12 h before a test drug was added in 96-well plates at an initial density of 1.0×10^5 cells/mL. Tumor cell lines were separately exposed to various concentrations of the tested compounds followed by incubation at a temperature of 37° C. during 96 hours inside a medium of fresh RMPI 1640. Cells were subsequently incubated at 37° C. using MTT at 0.5 mg/mL during 4 hours. After removal of supernatant, formazan crystals were dissolved in isopropanol and the optical density was measured at 570 nm. CX-4945 was used as a positive control.
In general terms: Tetrazolium dyes change colour on reduction, which living cells bring about.

The test system of another assay is HCT116 (colon). The assay can be described thus: In vitro cytotoxic activity MTT assay, HCT116. In kind it is cell-based. The conditions noted are these: Homo sapiens, HCT-116; cells exposed for 96 hours; 50% inhibition of cell proliferation; read-out: Cytotoxicity activity IC50, HCT116 (colon). As for the experimental part: as §1
A further assay relates to A375 (melanoma). The assay can be described thus: In vitro cytotoxic activity MTT assay, A375. In kind it is cell-based. The conditions noted are these: Homo sapiens, A-375; cells exposed for 96 hours; 50% inhibition of cell proliferation; read-out: Cytotoxicity activity IC50, A375 (melanoma). The method, then: as §1
The subject of a further assay is H1299 (lung). Put plainly: In vitro cytotoxic activity MTT assay, H1299. In kind it is cell-based. The settings on record: Homo sapiens, NCI-H1299; cells exposed for 96 hours; 50% inhibition of cell proliferation; read-out: Cytotoxicity activity IC50, H1299 (lung). The method, then:
as §1

The subject of another assay is MIAPaCa-2 (pancreas). The assay can be described thus: In vitro cytotoxic activity MTT assay, MIAPaCa-2. The settings on record: Homo sapiens, MIA PaCa-2; cells exposed for 96 hours; 50% inhibition of cell proliferation; read-out: Cytotoxicity activity IC50, MIAPaCa-2 (pancreas). In kind it is cell-based. The method, then: as §1
A further assay relates to HL60 (leukemia). The assay can be described thus: In vitro cytotoxic activity MTT assay, HL60. The settings on record: Homo sapiens, HL-60; cells exposed for 96 hours; 50% inhibition of cell proliferation; read-out: Cytotoxicity activity IC50, HL60 (leukemia). In kind it is cell-based. As for the experimental part:
as §1

The test system of a further assay is MCF7 (breast). The assay can be described thus: In vitro cytotoxic activity MTT assay, MCF7. In kind it is cell-based. The conditions noted are these: Homo sapiens, cells exposed for 96 hours, 50% inhibition of cell proliferation, read-out: Cytotoxicity activity IC50, MCF7 (breast). As for the experimental part:
as §1

Another assay deals with MDA-MB-231 (breast). The assay can be described thus: In vitro cytotoxic activity MTT assay, MDA-MB-231. In kind it is cell-based. The conditions noted are these: Homo sapiens, cells exposed for 96 hours, 50% inhibition of cell proliferation, read-out: Cytotoxicity activity IC50, MDA-MB-231 (breast). As for the experimental part: as §1
In the next assay the target is T1, recombinant human CK2 (Homo sapiens, UniProt P68400).
T1 construct: purchased Millipore
The assay can be described thus: CK2 Kinase Assay (33P-ATP, substrate peptide RRRDDDSDDD). In kind it is biochemical. The conditions noted are these: final ATP concentration 15 μM; 10 min at 30° C.; eight concentrations; read-out: protein kinase CK2 IC50. The method, then:
CK2 Kinase Assay was conducted using the protocol as described in Pierre F. et al; J. Med. Chem. 2011, 54, 635-654. The tested compounds in aqueous solution were added at a volume of 10 μL to a reaction mixture comprising 10 μL of assay dilution buffer (ADB; 20 mM MOPS, pH 7.2, 25 mM β-glycerol phosphate, 5 mM EGTA, 1 mM sodium orthovanadate, and 1 mM dithiothreitol), 10 μL of substrate peptide (RRRDDDSDDD, dissolved in ADB at a concentration of 1 mM), 10 μL of recombinant human CK2 (RRββ-holoenzyme, 25 ng dissolved in ADB; Millipore). Reactions were initiated by the addition of 10 μL of ATP solution (90%75 mMMgCl2, 75 µM ATP (final ATP concentration: 15 μM) dissolved in ADB; 10% [γ-33P] ATP (stock 1 mCi/100 μL; 3000 Ci/mmol (Perkin-Elmer) and maintained for 10 min at 30° C. The reactions were quenched with 100 μL of 0.75% phosphoric acid and then transferred to and filtered through a phosphor cellulose filter plate (Millipore). After washing each well five times with 0.75% phosphoric acid, the plate was dried under vacuum for 5 min and, following the addition of 15 μL of scintillation fluid to each well, the residual radioactivity was measured using a Wallac luminescence counter. The IC50 values were derived from eight concentrations of test inhibitors.

T1 sequence (P68400 whole entry): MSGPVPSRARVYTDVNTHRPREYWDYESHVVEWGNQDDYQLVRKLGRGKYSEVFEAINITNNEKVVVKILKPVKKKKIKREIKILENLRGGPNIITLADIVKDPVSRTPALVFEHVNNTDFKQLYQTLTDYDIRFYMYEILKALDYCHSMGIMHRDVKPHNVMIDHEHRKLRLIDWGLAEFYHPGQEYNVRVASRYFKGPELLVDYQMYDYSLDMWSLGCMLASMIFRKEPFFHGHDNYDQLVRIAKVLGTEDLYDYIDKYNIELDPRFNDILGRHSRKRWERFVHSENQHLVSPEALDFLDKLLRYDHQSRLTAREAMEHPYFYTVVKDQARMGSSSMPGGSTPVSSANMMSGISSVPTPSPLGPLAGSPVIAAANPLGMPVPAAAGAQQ
T1 sequence (P67870 whole entry partner): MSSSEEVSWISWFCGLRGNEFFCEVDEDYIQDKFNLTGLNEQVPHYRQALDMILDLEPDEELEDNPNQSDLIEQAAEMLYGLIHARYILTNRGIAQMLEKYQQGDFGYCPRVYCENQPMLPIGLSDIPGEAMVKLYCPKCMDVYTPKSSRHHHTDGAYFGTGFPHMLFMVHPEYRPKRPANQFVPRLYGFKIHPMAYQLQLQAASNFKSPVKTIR

Broadly, the IC50 is the concentration at which inhibition is half-maximal. With `Clc1cccc(Nc2c3cnccc3nc3c2nn2ccncc32)c1` [Compound (1), N-(3-chlorophenyl)pyrazino[1′,2′:1,5]pyrazolo[4,3-b][1,6]naphthyridin-7-amine], the 50% inhibitory concentration (IC50) in the assay with PC3 (prostate) worked out at 1400 nM; in the assay with HCT116 (colon), 1700 nM; in the assay with A375 (melanoma), 3600 nM; with H1299 (lung) it was 2500 nM; with MIAPaCa-2 (pancreas), 1100 nM; in the assay with HL60 (leukemia) it was 2900 nM. Besides, the IC50 worked out at 6100 nM with MCF7 (breast), 5300 nM in the assay on MDA-MB-231 (breast) and 100000 nM at recombinant human CK2.

Values taken from patent publication US12129259B1, “Pyrazino[1′,2′:1,5]pyrazolo[4,3-b][1,6]naphthyridines compounds as CK2 inhibitors” (KING FAISAL UNIVERSITY, priority 2023, dated 2024).
